Measured values published in PubChem BioAssay AID1845199 (Molecular Pharmacology Branch, DTP, NCI, 2023).

Tested on: 556581-035-R-J1 tumor spheroid viability, % test/control
Assay: Anticancer human tumor 556581-035-R-J1 patient-derived ovarian carcinoma cell line growth inhibition
Conditions: spheroids with HUVEC and MSC; for IC50: curve of first compound; for viability, T/C: stronger effect = lower value
From the text: Multicellular complex tumor spheroid response to DNA repair inhibitors in combination with DNA-damaging drugs
This study explores the anticancer activities of DNA-damaging drugs and inhibitors of DNA damage repair, both as single agents and in combinations. Complex tumor spheroids comprised of malignant cells, endothelial cells and mesenchymal stem cells served as an in vitro model for human solid tumors. This model system incorporates physiologically relevant features and patient-derived or established malignant cell lines with clinically relevant genetic alterations from many tumor types. Twenty-six patient-derived or established malignant cell lines were evaluated representing sarcoma, melanoma, small cell lung cancer (SCLC), non-small cell lung cancer (NSCLC), as well as bladder, ovarian and pancreatic cancers. The concentration ranges selected for each drug and investigational agent were based upon clinically achievable concentrations if the clinical Cmax of the agent was known.
Compounds. The drugs and compounds olaparib (NSC753686), talazoparib (NSC767125), berzosertib (NSC777718), elimusertib (NSC800525), nedisertib (NSC802822), VX-984 (NSC792969), AZD-1390 (NSC803789), temozolomide (NSC362856), topotecan (NSC609699), trabectedin (NSC813783), staurosporine (NSC755774), and gemcitabine (NSC613327) were obtained from the National Cancer Institute (NCI) Developmental Therapeutics Program Chemical Repository. The FDA-approved anticancer drug set is available from the Developmental Therapeutics Program at https://dtp.cancer.gov/organization/dscb/obtaining/available_plates.htm. […] The stock solutions were prepared in dimethyl sulfoxide (DMSO, Sigma-Aldrich, St. Louis, MO, cat. D2650) at 400-fold the tested concentration and stored at -70 degrees C. Prior to their use, the stock solutions were diluted in fresh medium and the final DMSO concentration in the assay was 0.25% (v/v). All drugs and investigational agents were tested over a range starting from a high concentration at or near the clinical Cmax and decreasing in half-log increments. If the clinical Cmax for an agent had not been determined, the highest concentration tested was 10 microM.
Cell Lines. The patient-derived cancer cell (PDC) lines: 156681-154-R-J1-PDC, 283228-195-R-J1-PDC, 287954-098-R-J1-PDC, 292921-168-R-J2-PDC, 349418-098-R-PDC, 425362-245-T-J1-PDC, 556581-035-R-J1-PDC, and BL0293-F563-PDC were received from the NCI Patient-Derived Models Repository (PDMR, https://pdmr.cancer.gov). The established cell lines HS-SY-2 (RRID:CVCL_8719), MPNST, and SYO-1 (RRID:CVCL_7146) were obtained from the Sloan Kettering Institute. The alveolar soft parts sarcoma cell line ASPS-1 (RRID:CVCL_S738) was established at the NCI and grown from internal seed stocks. The following established cell lines were purchased from the American Type Culture Collection (ATCC, Manassas, VA): G-401 (ATCC, cat. CRL-1441, RRID:CVCL_0270), SW982 (ATCC, cat. HTB-93, RRID:CVCL_1734), VA-ES-BJ (ATCC, cat. CRL-2138, RRID:CVCL_1785), NCI-H719 (ATCC, cat. CRL-5837, RRID:CVCL_1582), NCI-H196 (ATCC, cat. CRL-5823, RRID:CVCL_1509), NCI-H841 (ATCC, cat. CRL-5845, RRID:CVCL_1595), NCI-H1618 (ATCC, cat. CRL-5879, RRID:CVCL_1480), NCI-H1876 (ATCC, cat. CRL-5902, RRID:CVCL_1503), DMS 114 (ATCC, cat. CRL-2066; RRID:CVCL_1174), NCI-H211 (ATCC, cat. CRL-5824; RRID:CVCL_1529), and SW 1271 (ATCC, cat. CRL-2177, RRID:CVCL_1716). The small cell lung cancer cell line COR-L88 was purchased from Sigma-Aldrich (cat. 92031917-1VL, RRID:CVCL_1141). The non-small cell lung cancer cell lines NCI-H226 (RRID:CVCL_1544) and NCI-H322M (RRID:CVCL_1557) were established at the NCI and grown from internal seed stocks. Pooled donor human umbilical vein endothelial cells (HUVEC, Lonza, cat. CC-2519) and human mesenchymal stem cells (hMSC, Lonza, cat. PT-2501) were purchased from Lonza (Walkersville, MD).
Cell Culture. All cells were maintained in an incubator at 37 degrees C and 5% CO2 with 95% humidity. […]
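Also: spheroids exposed to compounds for 7 days before viability read.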

Work on `CNCc1ccc(-c2cc(-c3nc(-c4ccc(S(=O)(=O)C(C)C)cc4)cnc3N)on2)cc1` + Cn1nnc2c(C(N)=O)ncn2c1=O yielded an IC50 (second compound 1 µM) of 1.67 µM, an IC50 (second compound 3.16 µM) of 1.56 µM and an IC50 (second compound 10 µM) of 1.38 µM. The IC50 (second compound 31.6 µM) was 1.38 µM, the IC50 (second compound 100 µM) was 0.953 µM and the viability, T/C (second compound 1 µM, first compound 0.00949 µM) was 101%. The viability, T/C (second compound 1 µM, first compound 0.03 µM) was 108%, the viability, T/C (second compound 1 µM, first compound 0.0949 µM) was 109% and the viability, T/C (second compound 1 µM, first compound 0.3 µM) was 104%. It also gave a viability, T/C (second compound 1 µM, first compound 0.949 µM) of 80.2%, a viability, T/C (second compound 1 µM, first compound 3 µM) of 18.6% and a viability, T/C (second compound 3.16 µM, first compound 0.00949 µM) of 104%. For the same compound, the viability, T/C (second compound 3.16 µM, first compound 0.03 µM) was 117%, the viability, T/C (second compound 3.16 µM, first compound 0.0949 µM) was 105% and the viability, T/C (second compound 3.16 µM, first compound 0.3 µM) was 106%. For the same compound, the viability, T/C (second compound 3.16 µM, first compound 0.949 µM) was 72.6%, the viability, T/C (second compound 3.16 µM, first compound 3 µM) was 20% and the viability, T/C (second compound 10 µM, first compound 0.00949 µM) was 106%. For the same compound, the viability, T/C (second compound 10 µM, first compound 0.03 µM) was 109%, the viability, T/C (second compound 10 µM, first compound 0.0949 µM) was 110% and the viability, T/C (second compound 10 µM, first compound 0.3 µM) was 105%. For the same compound, the viability, T/C (second compound 10 µM, first compound 0.949 µM) was 67.3%, the viability, T/C (second compound 10 µM, first compound 3 µM) was 15.3% and the viability, T/C (second compound 31.6 µM, first compound 0.00949 µM) was 113%. For the same compound, the viability, T/C (second compound 31.6 µM, first compound 0.03 µM) was 113%, the viability, T/C (second compound 31.6 µM, first compound 0.0949 µM) was 110% and the viability, T/C (second compound 31.6 µM, first compound 0.3 µM) was 98.4%. For the same compound, the viability, T/C (second compound 31.6 µM, first compound 0.949 µM) was 66.2%, the viability, T/C (second compound 31.6 µM, first compound 3 µM) was 16.5% and the viability, T/C (second compound 100 µM, first compound 0.00949 µM) was 111%. It also gave a viability, T/C (second compound 100 µM, first compound 0.03 µM) of 102%, a viability, T/C (second compound 100 µM, first compound 0.0949 µM) of 120% and a viability, T/C (second compound 100 µM, first compound 0.3 µM) of 98.2%. It also gave a viability, T/C (second compound 100 µM, first compound 0.949 µM) of 50.5% and a viability, T/C (second compound 100 µM, first compound 3 µM) of 11.6%.
